The results in this text go back to patent US20260297092A1, “PYRAZOLOPYRIMIDINE DERIVATIVES AS INHIBITORS OF NLRP3” (Takeda Pharmaceutical Company Limited, priority 2023, published 2026).

The experiment relates to NLRP3 inflammasome (IL-1β production in THP-1 cells). As to the kind of experiment: IL-1β TR-FRET Assay (percentage of inhibition at 300 nM, 6 μM or 10 μM). Particulars: Homo sapiens, LPS priming, ATP activation; for inhibition at 6 µM: THP-1, 6 μM, read-out: IL-1β inhibitory rate at 6 μM (%); for inhibition at 0.3 µM: THP-1, 300 nM, read-out: IL-1β inhibitory rate at 300 nM (%). Type of experiment: cell-based, human. As for the experimental part:
The biological activity of the compound of Formula 1 with respect to NLRP3 was determined using the following in vitro method.
IL-1β TR-FRET Assay (reported as percentage of inhibition at 300 nM, 6 μM or 10 μM)
Monocytic THP-1 cells (ATCC: TIB-202) were maintained in accordance with the provider's instructions in RPMI media (Life Technologies, Cat #A10491-01); RPMI was supplemented with 10% heat inactivated fetal bovine serum (Corning, Cat #35-010-CV). The cells were differentiated into macrophages by the addition of 25 ng/mL IFN-γ (PeproTech, Cat #AF-300-02-100UG) for 24 hours at 37° C./5% CO2. Media was exchanged with fresh media with no FBS, and the cells were treated with 50 ng/mL LPS (priming step) (LPS-EK: Invivogen, Cat #tlrl-peklps). The cells were plated at 20,000 cells per well in 384-well flat-bottom cell culture plates (FALCON, Cat #353962) and were incubated for 24 hours at 37° C./5% CO2. Compounds were serially diluted (half log or 5-fold dilutions) with DMSO and were finally diluted with Media with no FBS. The compounds were added to the cells in 384-well plates (added in 1:3) and then the plates were incubated for 30 minutes at 37° C./5% CO2. The NLRP3 inflammasome was activated with the addition of 20 mM ATP (Sigma Cat #A3377-25G) and the cells were incubated for 2 hours at 37° C./5% CO2. At the end of the incubation period, 30 μL supernatant was transferred to another 384-well plate and mixed on a plate shaker for 1 minute. The supernatant was mixed with HTRF Antibody (Human IL1 beta kit, Cisbio, 62HIL1BPEH) in assay plates (Greiner Bio-One, Cat #784075) and the assay plates were incubated in shading box at room temperature for 16-24 hours. HTRF signal was measured by EnVision (Perkinelmer) in accordance with the manufacturer's instructions.
The percentage of inhibition at 300 nM, 6 μM or 10 μM in the IL-1βTR-FRET assay was calculated by the following formula: Percentage of inhibition=[1−(HTRF signaltest−HTRF signalLow)/(HTRF signalHigh−HTRF signalLow)]*100, where HTRF signaltest is the HTRF signal in the well to which test compound is added, HTRF signalLow is the HTRF signal in the well to which 3 μM MCC-950 is added, and the HTRF signalHigh is the HTRF signal in the well to which DMSO is added.
(In general: TR-FRET usually uses a lanthanide donor and a delayed reading to cut background.)

Each structure is given as a SMILES string.

Regarding `Cc1cc(C2CC2)cc(C)c1-n1cc2c(=O)[nH]c(CCO)nc2n1` [Example 276, 2-(4-cyclopropyl-2,6-dimethylphenyl)-6-(2-hydroxyethyl)-2,5-dihydro-4H-pyrazolo[3,4-d]pyrimidin-4-one], the inhibition at 6 µM is 99%.

On to `CCOc1nc2nn(-c3c(C)cc(C4CC4)nc3C)cc2c(=O)[nH]1` [Example 174, 2-(6-cyclopropyl-2,4-dimethylpyridin-3-yl)-6-ethoxy-2,5-dihydro-4H-pyrazolo[3,4-d]pyrimidin-4-one], for which the inhibition at 0.3 µM turned out to be 108%.

In the case of `CCOc1nc2nn(-c3c(F)cc(C4CC4)cc3CC(F)(F)F)cc2c(=O)[nH]1` [Example 206, 2-[4-cyclopropyl-2-fluoro-6-(2,2,2-trifluoroethyl)phenyl]-6-ethoxy-2,5-dihydro-4H-pyrazolo[3,4-d]pyrimidin-4-one], the inhibition at 0.3 µM was determined as 97%.

For `Cc1cc(C2CC2)cc(C)c1-n1cc2c(=O)[nH]c(C3(C#N)CC3)nc2n1` [Example 318, 1-[2-(4-cyclopropyl-2,6-dimethylphenyl)-4-oxo-4,5-dihydro-2H-pyrazolo[3,4-d]pyrimidin-6-yl]cyclopropane-1-carbonitrile], the inhibition at 6 µM was found to be 98%.

Take `Cc1c(Br)c(Br)cc(C(F)F)c1-n1cc2c(=O)[nH]c(COC(F)F)nc2n1` [Example 280, 2-[3,4-dibromo-6-(difluoromethyl)-2-methylphenyl]-6-[(difluoromethoxy)methyl]-2,5-dihydro-4H-pyrazolo[3,4-d]pyrimidin-4-one]: the inhibition at 6 µM amounted to 99%.

`COCCOc1nc2nn(-c3c(C)cc(C4CC4)cc3C(F)F)cc2c(=O)[nH]1` [Example 210, 2-[4-cyclopropyl-2-(difluoromethyl)-6-methylphenyl]-6-(2-methoxyethoxy)-2,5-dihydro-4H-pyrazolo[3,4-d]pyrimidin-4-one]: the inhibition at 0.3 µM was 101%.

As to `Cc1cc(Br)cc(C)c1-n1cc2c(=O)[nH]c(C3(F)CC3)nc2n1` [Example 188, 2-(4-bromo-2,6-dimethylphenyl)-6-(1-fluorocyclopropyl)-2,5-dihydro-4H-pyrazolo[3,4-d]pyrimidin-4-one], the inhibition at 0.3 µM stood at 99%.

Regarding `COCc1nc2nn(-c3c(C)cc(C4CC4)cc3CC(F)F)cc2c(=O)[nH]1` [Example 323, 2-[4-cyclopropyl-2-(2,2-difluoroethyl)-6-methylphenyl]-6-(methoxymethyl)-2,5-dihydro-4H-pyrazolo[3,4-d]pyrimidin-4-one], the inhibition at 6 µM came to 103%.

With `Cc1cc(C2CC2)cc(C)c1-n1cc2c(=O)[nH]c(C3(C)COC3)nc2n1` [Example 315, 2-(4-cyclopropyl-2,6-dimethylphenyl)-6-(3-methyloxetan-3-yl)-2,5-dihydro-4H-pyrazolo [3,4-d]pyrimidin-4-one], the inhibition at 6 µM came to 101%.

`Cc1cc(C2CC2)cc(C)c1-n1cc2c(=O)[nH]c([C@H]3C[C@H](F)C3)nc2n1` [Example 255, 2-(4-cyclopropyl-2,6-dimethylphenyl)-6-[(1r,3r)-3-fluorocyclobutyl]-2,5-dihydro-4H-pyrazolo [3,4-d]pyrimidin-4-one]: the inhibition at 6 µM came to 98%.

Turning to `CCOc1nc2nn(-c3c(Br)cc(C4CC4)cc3C(F)F)cc2c(=O)[nH]1` [Example 250, 2-[2-bromo-4-cyclopropyl-6-(difluoromethyl)phenyl]-6-ethoxy-2,5-dihydro-4H-pyrazolo[3,4-d]pyrimidin-4-one], the inhibition at 6 µM was found to be 103%.

For the compound `Cc1cc(C2CC2)cc(C)c1-n1cc2c(=O)[nH]c([C@]3(F)CCOC3)nc2n1` [Example 290, 2-(4-cyclopropyl-2,6-dimethylphenyl)-6-[(3S)-3-fluorooxolan-3-yl]-2,5-dihydro-4H-pyrazolo[3,4-d]pyrimidin-4-one or 2-(4-cyclopropyl-2,6-dimethylphenyl)-6-[(3R)-3-fluorooxolan-3-yl]-2,5-dihydro-4H-pyrazolo[3,4-d]pyrimidin-4-one], the inhibition at 6 µM came out at 99%.

Consider `Cc1cc(C2CC2)cc(C)c1-n1cc2c(=O)[nH]c(-c3cnn(C)c3)nc2n1` [Example 217, 2-(4-cyclopropyl-2,6-dimethylphenyl)-6-(1-methyl-1H-pyrazol-4-yl)-2,5-dihydro-4H-pyrazolo[3,4-d]pyrimidin-4-one], for which the inhibition at 0.3 µM was found to be 108%.

For the compound `COCCOc1nc2nn(-c3c(C)cc(C4CC4)cc3OC(F)F)cc2c(=O)[nH]1` [Example 225, 2-[4-cyclopropyl-2-(difluoromethoxy)-6-methylphenyl]-6-(2-methoxyethoxy)-2,5-dihydro-4H-pyrazolo[3,4-d]pyrimidin-4-one], the inhibition at 0.3 µM worked out at 100%.

`Cc1cc(C2CC2)cc(C)c1-n1cc2c(=O)[nH]c(-c3ncc(C(F)(F)F)[nH]3)nc2n1` [Example 242, 2-(4-cyclopropyl-2,6-dimethylphenyl)-6-[5-(trifluoromethyl)-1H-imidazol-2-yl]-2,5-dihydro-4H-pyrazolo[3,4-d]pyrimidin-4-one]: the inhibition at 6 µM is 104%.

With `Cc1cc(C2CC2)cc(C)c1-n1cc2c(=O)[nH]c(CC(C)(C)O)nc2n1` [Example 181, 2-(4-cyclopropyl-2,6-dimethylphenyl)-6-(2-hydroxy-2-methylpropyl)-2,5-dihydro-4H-pyrazolo[3,4-d]pyrimidin-4-one], the inhibition at 0.3 µM came to 103%.

Turning to `CO[C@H]1C[C@@H](Oc2nc3nn(-c4ccc(C)cc4C)cc3c(=O)[nH]2)C1` [Example 243, 2-(2,4-dimethylphenyl)-6-{[(1s,3s)-3-methoxycyclobutyl]oxy}-2,5-dihydro-4H-pyrazolo[3,4-d]pyrimidin-4-one], the inhibition at 6 µM was determined as 100%.

On to `Cc1cc(C2(F)CC2)cc(C)c1-n1cc2c(=O)[nH]c(-c3ccn(C)n3)nc2n1` [Example 292, 2-[4-(1-fluorocyclopropyl)-2,6-dimethylphenyl]-6-(1-methyl-1H-pyrazol-3-yl)-2,5-dihydro-4H-pyrazolo[3,4-d]pyrimidin-4-one], for which the inhibition at 6 µM came out at 101%.

Turning to `CCOCc1nc2nn(-c3c(F)cc(C4CC4)cc3C(F)F)cc2c(=O)[nH]1` [Example 314, 2-[4-cyclopropyl-2-(difluoromethyl)-6-fluorophenyl]-6-(ethoxymethyl)-2,5-dihydro-4H-pyrazolo[3,4-d]pyrimidin-4-one], the inhibition at 6 µM was 105%.

In the case of `CCOc1nc2nn(-c3ccc(C4(F)CC4)cc3F)cc2c(=O)[nH]1` [Example 183, 6-ethoxy-2-[2-fluoro-4-(1-fluorocyclopropyl)phenyl]-2,5-dihydro-4H-pyrazolo[3,4-d]pyrimidin-4-one], the inhibition at 0.3 µM is 96%.

With `CCOc1nc2nn(-c3c(F)cc(C4(F)CC4)cc3Br)cc2c(=O)[nH]1` [Example 178, 2-[2-bromo-6-fluoro-4-(1-fluorocyclopropyl)phenyl]-6-ethoxy-2,5-dihydro-4H-pyrazolo[3,4-d]pyrimidin-4-one], the inhibition at 0.3 µM worked out at 101%.

Regarding `Cc1cc(C2CC2)cc(C)c1-n1cc2c(=O)[nH]c(C3(F)CCOCC3)nc2n1` [Example 238, 2-(4-cyclopropyl-2,6-dimethylphenyl)-6-(4-fluorooxan-4-yl)-2,5-dihydro-4H-pyrazolo[3,4-d]pyrimidin-4-one], the inhibition at 6 µM turned out to be 97%.

Turning to `Cc1cc(C2CC2)cc(Cl)c1-n1cc2c(=O)[nH]c(COC(F)F)nc2n1` [Example 294, 2-(2-chloro-4-cyclopropyl-6-methylphenyl)-6-[(difluoromethoxy)methyl]-2,5-dihydro-4H-pyrazolo[3,4-d]pyrimidin-4-one], the inhibition at 6 µM worked out at 106%.

For the compound `CO[C@H]1C[C@@H](c2nc3nn(-c4c(C)cc(C5CC5)cc4C)cc3c(=O)[nH]2)C1` [Example 248, 2-(4-cyclopropyl-2,6-dimethylphenyl)-6-[(1s,3s)-3-methoxycyclobutyl]-2,5-dihydro-4H-pyrazolo[3,4-d]pyrimidin-4-one], the inhibition at 6 µM worked out at 100%.

For the compound `Cc1cc(Br)cc(C)c1-n1cc2c(=O)[nH]c([C@H]3CC3(F)F)nc2n1` [Example 189, 2-(4-bromo-2,6-dimethylphenyl)-6-(2,2-difluorocyclopropyl)-2,5-dihydro-4H-pyrazolo[3,4-d]pyrimidin-4-one], the inhibition at 0.3 µM came out at 99%.

As to `Cc1cc(C2CC2)cc(C)c1-n1cc2c(=O)[nH]c(C(C)(C)O)nc2n1` [Example 172, 2-(4-cyclopropyl-2,6-dimethylphenyl)-6-(2-hydroxypropan-2-yl)-2,5-dihydro-4H-pyrazolo[3,4-d]pyrimidin-4-one], the inhibition at 0.3 µM stood at 61%.
